# Measurements published in patent US12077503B2, “Substituted cyclic amides and their use as herbicides” (FMC CORPORATION, priority 2015, dated 2024).
# How the values were obtained:
# Type in all cases: in vivo
# [1] = system: barnyardgrass (Echinochloa crus-galli); assay: Test G Pre-Emergence Protocol; conditions: Echinochloa crus-galli, pre-emergence, 312 h, evaluated after 13 days; for pest or weed control at 15.625 g/ha: 15.625 g ai/ha, read-out: Barnyard grass damage rating (100=total damage to plant; 0=no damage to plant); for pest or weed control at 62.5 g/ha: 62.5 g ai/ha, 100=total damage to plant, 0=no damage to plant, read-out: plant damage rating, Barnyardgrass; for pest or weed control at 250 g/ha: 250 g ai/ha, read-out: Barnyardgrass damage rating (100=total damage to plant; 0=no damage to plant)
# Method in brief: (§1)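 Herbicidal effect was rated 13 days post-application on a scale where 100 equals total damage. Spraying took place the day after sowing, using 15.625, 62.5 or 250 g/ha of compound in a 50:50 acetone/water solution with 0.5% Tween 20.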
# corn (Zea mays) [2] = assay: Test G Pre-Emergence Protocol; conditions: Zea mays, pre-emergence, 312 h, evaluated after 13 days; for plant injury at 15.625 g/ha: 15.625 g ai/ha; for plant injury at 15.625 g/ha / plant injury at 250 g/ha: read-out: Corn damage rating (100=total damage to plant; 0=no damage to plant); for plant injury at 62.5 g/ha: 62.5 g ai/ha, 100=total damage to plant, 0=no damage to plant, read-out: plant damage rating, Corn; for plant injury at 250 g/ha: 250 g ai/ha
# Method in brief: as §1
# [3] = system: giant foxtail (Setaria faberi); assay: Test G Pre-Emergence Protocol; conditions: Setaria faberi, pre-emergence, 312 h, evaluated after 13 days; for pest or weed control at 15.625 g/ha: 15.625 g ai/ha; for pest or weed control at 15.625 g/ha / pest or weed control at 250 g/ha: read-out: Foxtail, Giant damage rating (100=total damage to plant; 0=no damage to plant); for pest or weed control at 62.5 g/ha: 62.5 g ai/ha, 100=total damage to plant, 0=no damage to plant, read-out: plant damage rating, Foxtail, Giant; for pest or weed control at 250 g/ha: 250 g ai/ha
# Method in brief: as §1
# [4] = system: ivy-leaved morning glory (Ipomoea hederacea); assay: Test G Pre-Emergence Protocol; conditions: Ipomoea, pre-emergence, 312 h, evaluated after 13 days; for pest or weed control at 15.625 g/ha: 15.625 g ai/ha, read-out: Morning-glory, Ivy-leaved damage rating (100=total damage to plant; 0=no damage to plant); for pest or weed control at 62.5 g/ha: 62.5 g ai/ha, 100=total damage to plant, 0=no damage to plant, read-out: plant damage rating, Morningglory, Ivy-leaved; for pest or weed control at 250 g/ha: 250 g ai/ha, read-out: Morningglory, Ivy-leaved damage rating (100=total damage to plant; 0=no damage to plant)
# Method in brief: as §1
# [5] = system: redroot pigweed (Amaranthus retroflexus); assay: Test G Pre-Emergence Protocol; conditions: Amaranthus retroflexus, pre-emergence, 312 h, evaluated after 13 days; for pest or weed control at 15.625 g/ha: 15.625 g ai/ha; for pest or weed control at 15.625 g/ha / pest or weed control at 250 g/ha: read-out: Pigweed, Redroot damage rating (100=total damage to plant; 0=no damage to plant); for pest or weed control at 62.5 g/ha: 62.5 g ai/ha, 100=total damage to plant, 0=no damage to plant, read-out: plant damage rating, Pigweed, Redroot; for pest or weed control at 250 g/ha: 250 g ai/ha
# Method in brief: as §1
# [6] = system: velvetleaf (Abutilon theophrasti); assay: Test G Pre-Emergence Protocol; conditions: Abutilon theophrasti, pre-emergence, 312 h, evaluated after 13 days; for pest or weed control at 15.625 g/ha: 15.625 g ai/ha; for pest or weed control at 15.625 g/ha / pest or weed control at 250 g/ha: read-out: Velvetleaf damage rating (100=total damage to plant; 0=no damage to plant); for pest or weed control at 62.5 g/ha: 62.5 g ai/ha, 100=total damage to plant, 0=no damage to plant, read-out: plant damage rating, Velvetleaf; for pest or weed control at 250 g/ha: 250 g ai/ha
# Method in brief: as §1
# [7] = system: barnyardgrass (Echinochloa crus-galli); assay: Test G Post-Emergence Protocol; conditions: Echinochloa crus-galli, post-emergence, 312 h; for pest or weed control at 15.625 g/ha: 15.625 g ai/ha, evaluated after 13 days (100=total damage to plant; 0=no damage to plant), read-out: Barnyardgrass damage rating; for pest or weed control at 62.5 g/ha: 62.5 g ai/ha, read-out: Barnyardgrass damage rating (100=total damage to plant; 0=no damage to plant); for pest or weed control at 62.5 g/ha / pest or weed control at 250 g/ha: evaluated after 13 days; for pest or weed control at 250 g/ha: 250 g ai/ha, read-out: damage to plant, Barnyardgrass (100=total damage to plant; 0=no damage to plant)
# Method in brief: (§2)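 Damage was rated 13 days after treatment from 0 (none) to 100 (plant killed). Compound was applied as a spray at 15.625, 62.5 or 250 g/ha in 50:50 acetone/water containing 0.5% Tween 20, onto 8-day-old potted plants kept in a glasshouse (24/16 °C, 14 h light, 65% humidity).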
# corn (Zea mays) [8] = assay: Test G Post-Emergence Protocol; conditions: Zea mays, post-emergence, 312 h; for plant injury at 15.625 g/ha: 15.625 g ai/ha, evaluated after 13 days (100=total damage to plant; 0=no damage to plant), read-out: Corn damage rating; for plant injury at 62.5 g/ha: 62.5 g ai/ha, read-out: Corn damage rating (100=total damage to plant; 0=no damage to plant); for plant injury at 62.5 g/ha / plant injury at 250 g/ha: evaluated after 13 days; for plant injury at 250 g/ha: 250 g ai/ha, read-out: damage to plant, Corn (100=total damage to plant; 0=no damage to plant)
# Method in brief: as §2
# [9] = system: giant foxtail (Setaria faberi); assay: Test G Post-Emergence Protocol; conditions: Setaria faberi, post-emergence, 312 h; for pest or weed control at 15.625 g/ha: 15.625 g ai/ha, evaluated after 13 days (100=total damage to plant; 0=no damage to plant), read-out: Foxtail, Giant damage rating; for pest or weed control at 62.5 g/ha: 62.5 g ai/ha, read-out: Foxtail, Giant damage rating (100=total damage to plant; 0=no damage to plant); for pest or weed control at 62.5 g/ha / pest or weed control at 250 g/ha: evaluated after 13 days; for pest or weed control at 250 g/ha: 250 g ai/ha, read-out: damage to plant, Foxtail, Giant (100=total damage to plant; 0=no damage to plant)
# Method in brief: as §2
# [10] = system: ivy-leaved morning glory (Ipomoea hederacea); assay: Test G Post-Emergence Protocol; conditions: Ipomoea, post-emergence, 312 h; for pest or weed control at 15.625 g/ha: 15.625 g ai/ha, evaluated after 13 days (100=total damage to plant; 0=no damage to plant), read-out: Morningglory, Ivy-leaved damage rating; for pest or weed control at 62.5 g/ha: 62.5 g ai/ha, read-out: Morningglory, Ivy-leaved damage rating (100=total damage to plant; 0=no damage to plant); for pest or weed control at 62.5 g/ha / pest or weed control at 250 g/ha: evaluated after 13 days; for pest or weed control at 250 g/ha: 250 g ai/ha, read-out: damage to plant, Morningglory, Ivy-leaved (100=total damage to plant; 0=no damage to plant)
# Method in brief: as §2
# [11] = system: redroot pigweed (Amaranthus retroflexus); assay: Test G Post-Emergence Protocol; conditions: Amaranthus retroflexus, post-emergence, 312 h; for pest or weed control at 15.625 g/ha: 15.625 g ai/ha, evaluated after 13 days (100=total damage to plant; 0=no damage to plant), read-out: Pigweed, Redroot damage rating; for pest or weed control at 62.5 g/ha: 62.5 g ai/ha, read-out: Pigweed, Redroot damage rating (100=total damage to plant; 0=no damage to plant); for pest or weed control at 62.5 g/ha / pest or weed control at 250 g/ha: evaluated after 13 days; for pest or weed control at 250 g/ha: 250 g ai/ha, read-out: damage to plant, Pigweed, Redroot (100=total damage to plant; 0=no damage to plant)
# Method in brief: as §2
# [12] = system: velvetleaf (Abutilon theophrasti); assay: Test G Post-Emergence Protocol; conditions: Abutilon theophrasti, post-emergence, 312 h; for pest or weed control at 15.625 g/ha: 15.625 g ai/ha, evaluated after 13 days (100=total damage to plant; 0=no damage to plant), read-out: Velvetleaf damage rating; for pest or weed control at 62.5 g/ha: 62.5 g ai/ha, read-out: Velvetleaf damage rating (100=total damage to plant; 0=no damage to plant); for pest or weed control at 62.5 g/ha / pest or weed control at 250 g/ha: evaluated after 13 days; for pest or weed control at 250 g/ha: 250 g ai/ha, read-out: damage to plant, Velvetleaf (100=total damage to plant; 0=no damage to plant)
# Method in brief: as §2
SMILES,pest or weed control at 15.625 g/ha [1] [%],pest or weed control at 62.5 g/ha [1] [%],pest or weed control at 250 g/ha [1] [%],plant injury at 15.625 g/ha (corn (Zea mays) [2]) [%],plant injury at 62.5 g/ha (corn (Zea mays) [2]) [%],plant injury at 250 g/ha (corn (Zea mays) [2]) [%],pest or weed control at 15.625 g/ha [3] [%],pest or weed control at 62.5 g/ha [3] [%],pest or weed control at 250 g/ha [3] [%],pest or weed control at 15.625 g/ha [4] [%],pest or weed control at 62.5 g/ha [4] [%],pest or weed control at 250 g/ha [4] [%],pest or weed control at 15.625 g/ha [5] [%],pest or weed control at 62.5 g/ha [5] [%],pest or weed control at 250 g/ha [5] [%],pest or weed control at 15.625 g/ha [6] [%],pest or weed control at 62.5 g/ha [6] [%],pest or weed control at 250 g/ha [6] [%],pest or weed control at 15.625 g/ha [7] [%],pest or weed control at 62.5 g/ha [7] [%],other results
Cc1nc(C(F)(F)F)ccc1NC(=O)[C@@H]1C(=O)N(C)C[C@H]1c1ccc(C(F)(F)F)cc1 (racemic) [Compound 1566],0,0,0,0,0,0,0,0,0,0,0,0,0,0,0,0,0,0,0,10,pest or weed control at 250 g/ha [7]: 20%; plant injury at 15.625 g/ha (corn (Zea mays) [8]): 0%; plant injury at 62.5 g/ha (corn (Zea mays) [8]): 0%; plant injury at 250 g/ha (corn (Zea mays) [8]): 0%; pest or weed control at 15.625 g/ha [9]: 0%; pest or weed control at 62.5 g/ha [9]: 0%; pest or weed control at 250 g/ha [9]: 0%; pest or weed control at 15.625 g/ha [10]: 0%; pest or weed control at 62.5 g/ha [10]: 0%; pest or weed control at 250 g/ha [10]: 0%; pest or weed control at 15.625 g/ha [11]: 0%; pest or weed control at 62.5 g/ha [11]: 0%; pest or weed control at 250 g/ha [11]: 0%; pest or weed control at 15.625 g/ha [12]: 0%; pest or weed control at 62.5 g/ha [12]: 0%; pest or weed control at 250 g/ha [12]: 0%
Cc1cccc(NC(=O)[C@@H]2C(=O)N(C)C[C@H]2c2ccc(C(F)(F)F)cc2)c1[N+](=O)[O-] (racemic) [Compound 1636],0,10,30,0,0,0,0,40,60,0,0,0,0,0,0,0,0,0,10,50,pest or weed control at 250 g/ha [7]: 50%; plant injury at 15.625 g/ha (corn (Zea mays) [8]): 0%; plant injury at 62.5 g/ha (corn (Zea mays) [8]): 0%; plant injury at 250 g/ha (corn (Zea mays) [8]): 0%; pest or weed control at 15.625 g/ha [9]: 50%; pest or weed control at 62.5 g/ha [9]: 70%; pest or weed control at 250 g/ha [9]: 70%; pest or weed control at 15.625 g/ha [10]: 0%; pest or weed control at 62.5 g/ha [10]: 0%; pest or weed control at 250 g/ha [10]: 0%; pest or weed control at 15.625 g/ha [11]: 0%; pest or weed control at 62.5 g/ha [11]: 0%; pest or weed control at 250 g/ha [11]: 0%; pest or weed control at 15.625 g/ha [12]: 0%; pest or weed control at 62.5 g/ha [12]: 0%; pest or weed control at 250 g/ha [12]: 0%
